Assay results reported in the supplement of paper PMC8671470.

Legend:
Conditions in all cases: 72 h
KU-812 = test system: KU-812
Outline: (§1)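 The IC50 was read from log-logistic dose–response fits. Fifteen myeloid leukaemia lines were exposed for 72 h at 37 °C with 5% CO2 to five tenfold doses from 1 to 10,000 nM in duplicate. ATP luminescence, normalised to vehicle and to a 10 µM positive control, was fitted with four parameters.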

NOMO-1 = test system: NOMO-1
Outline: as §1

MOLM-13 = test system: MOLM-13
Outline: as §1

LAMA-84 = test system: LAMA-84
Outline: as §1

MV4-11 = test system: MV4-11
Outline: as §1

KG-1 = test system: KG-1
Outline: as §1

SHI-1 = test system: SHI-1
Outline: as §1

BV-173 = test system: BV-173
Outline: as §1

THP-1 = test system: THP-1
Outline: as §1

K-562 = test system: K-562
Outline: as §1

HL-60 = test system: HL-60
Outline: as §1

ML-2 = test system: ML-2
Outline: as §1

Mono-Mac-6 = test system: Mono-Mac-6
Outline: as §1

HEL = test system: HEL
Outline: as §1

Row | SMILES | IC50 (cell viability) (KU-812) [µM] | IC50 (cell viability) (NOMO-1) [µM] | IC50 (cell viability) (MOLM-13) [µM] | IC50 (cell viability) (LAMA-84) [µM] | IC50 (cell viability) (MV4-11) [µM] | IC50 (cell viability) (KG-1) [µM] | IC50 (cell viability) (SHI-1) [µM] | IC50 (cell viability) (BV-173) [µM] | IC50 (cell viability) (THP-1) [µM] | IC50 (cell viability) (K-562) [µM] | IC50 (cell viability) (HL-60) [µM] | IC50 (cell viability) (ML-2) [µM] | IC50 (cell viability) (Mono-Mac-6) [µM] | IC50 (cell viability) (HEL) [µM]
1 | CC(C)c1cc2c(c(O)c1O)[C@@]1(C(=O)O)CCCC(C)(C)[C@@H]1CC2 [Carnosic acid] | > 10 | > 10 | > 10 | > 10 | > 10 | > 10 | > 10 | 5.01 | > 10 | > 10 | > 10 | > 10 | > 10 | > 10
2 | CCCCCCCCCCCC(=O)c1c(O)c(C(=O)CCCCCCCCCCC)c(O)c(C2CC(c3ccc(O)cc3)Oc3cc(O)ccc32)c1O (stereo unspecified) | > 10 | > 10 | > 10 | > 10 | > 10 | > 10 | > 10 | > 10 | > 10 | > 10 | > 10 | > 10 | > 10 | > 10
3 | O[C@H]1[C@H]2[C@H](O)CCCN2C[C@H]1O [Swainsonine] | > 10 | > 10 | > 10 | > 10 | > 10 | > 10 | > 10 | > 10 | > 10 | > 10 | > 10 | > 10 | > 10 | > 10
4 | CCOP(=O)(OCC)C(=Cc1cc(C(C)(C)C)c(O)c(C(C)(C)C)c1)P(=O)(OCC)OCC | > 10 | > 10 | > 10 | > 10 | > 10 | > 10 | > 10 | > 10 | > 10 | > 10 | > 10 | > 10 | 6.9 | > 10
5 | O=c1oc2c(O)c(O)cc3c(=O)oc4c(O)c(O)cc1c4c23 [Benzoaric Acid] | > 10 | > 10 | > 10 | > 10 | > 10 | > 10 | > 10 | > 10 | > 10 | > 10 | > 10 | > 10 | > 10 | > 10
6 | NS(=O)(=O)c1ccc([N+](=O)[O-])cc1 [4-Nitrobenzenesulfonamide] | > 10 | > 10 | > 10 | > 10 | > 10 | > 10 | > 10 | > 10 | > 10 | > 10 | > 10 | > 10 | > 10 | > 10
7 | CCCCC/C=C\C/C=C\C/C=C\C/C=C\CCCCN1C(=O)C=CC1=O [N-Arachidonylmaleimide] | > 10 | > 10 | > 10 | > 10 | > 10 | > 10 | > 10 | > 10 | > 10 | > 10 | > 10 | > 10 | > 10 | > 10
8 | CN(C)c1cc(NC(=O)CNC(C)(C)C)c(O)c2c1C[C@H]1C[C@H]3[C@H](N(C)C)C(=O)C(C(N)=O)C(=O)[C@@]3(O)C(=O)C1C2=O (stereo partly specified) [Tigecycline] | > 10 | > 10 | > 10 | > 10 | > 10 | > 10 | > 10 | > 10 | > 10 | > 10 | > 10 | > 10 | > 10 | > 10
9 | CC[C@H](C)C(=O)O[C@H]1C[C@@H](C)C=C2C=C[C@H](C)[C@H](CC[C@@H]3C[C@@H](O)CC(=O)O3)[C@H]21 [Lovastatin] | > 10 | > 10 | > 10 | > 10 | > 10 | > 10 | > 10 | > 10 | > 10 | > 10 | > 10 | > 10 | > 10 | > 10
10 | CC(C)c1nc(CN(C)C(=O)N[C@H](C(=O)N[C@@H](Cc2ccccc2)C[C@H](O)[C@H](Cc2ccccc2)NC(=O)OCc2cncs2)C(C)C)cs1 [Ritonavir] | > 10 | > 10 | > 10 | > 10 | > 10 | > 10 | > 10 | 6.62 | > 10 | > 10 | > 10 | > 10 | > 10 | > 10
11 | O=C(O)C[C@@]1(O)C[C@@H](CCCCCCc2ccc(Cl)cc2Cl)OC1=O | > 10 | > 10 | > 10 | > 10 | > 10 | > 10 | > 10 | > 10 | > 10 | > 10 | > 10 | > 10 | > 10 | > 10
12 | O=C(NNc1ccccc1)c1ccncc1 [PluriSln 1] | > 10 | > 10 | 5.72 | 8.48 | > 10 | > 10 | > 10 | > 10 | > 10 | 9.7 | 5.48 | > 10 | > 10 | > 10
13 | COc1ccc(S(=O)(=O)N2CCN(S(=O)(=O)c3ccc4c(c3)OCCO4)CC2)cc1 [BML283] | > 10 | > 10 | > 10 | > 10 | > 10 | > 10 | > 10 | > 10 | > 10 | > 10 | > 10 | > 10 | > 10 | > 10
14 | O=C1O[C@H]([C@@H](O)CO)C(O)=C1O [Vitamin C (ascorbate)] | > 10 | > 10 | > 10 | > 10 | > 10 | > 10 | > 10 | > 10 | > 10 | > 10 | > 10 | > 10 | > 10 | > 10
